What was measured:
Assay type in all cases: in vitro ADME
[1] = target: T1, CYP1A2 (Homo sapiens, UniProt P05177); test: 5 in 1 CYP inhibition assay, CYP1A2; settings: microsomes, probe phenacetin (O-deethylation), test compound 10 μM, n=2, read-out: inhibition of cytochrome P450 isoform 1A2
T1 construct: from tissue
T1 sequence (P05177 1-516): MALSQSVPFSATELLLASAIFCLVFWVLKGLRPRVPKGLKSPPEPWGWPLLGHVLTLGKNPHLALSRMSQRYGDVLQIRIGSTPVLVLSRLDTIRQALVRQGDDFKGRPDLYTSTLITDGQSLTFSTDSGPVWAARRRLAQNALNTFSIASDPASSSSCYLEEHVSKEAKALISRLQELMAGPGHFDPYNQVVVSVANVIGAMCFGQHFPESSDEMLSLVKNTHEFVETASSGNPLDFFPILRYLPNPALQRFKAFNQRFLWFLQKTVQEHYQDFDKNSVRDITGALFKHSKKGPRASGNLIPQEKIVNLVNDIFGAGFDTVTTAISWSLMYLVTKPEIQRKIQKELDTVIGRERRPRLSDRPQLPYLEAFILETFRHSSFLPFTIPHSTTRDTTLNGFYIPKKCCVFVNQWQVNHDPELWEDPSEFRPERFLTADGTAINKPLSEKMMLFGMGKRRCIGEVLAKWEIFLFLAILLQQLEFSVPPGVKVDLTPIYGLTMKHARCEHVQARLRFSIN
Procedure: CYP450 dependent activities were determined using a marker substrate cocktail. For each reaction, enzyme activities in the presence and absence of test compound (10 μM) were measured in duplicate. A known inhibitor for each isoform, tested at a single concentration (3 μM, n=2), was included as positive control. Incubation mixtures containing microsomes, substrate, and standard inhibitor or test compound were warmed at 37° C. for 10 minutes. Reactions were initiated by addition of the NADPH and incubated for 10 min. [table] After incubation, ice cold acetonitrile was added to terminate the reaction. Generation of metabolites from the substrate reactions was determined by LC-MS/MS.

[2] = Plasma protein binding, HT-Dialysis (rat); settings: pH 7.4, dialysis 4 hours, read-out: percent unbound
Procedure: HT-Dialysis plate (Model HTD 96 b, Cat #1006) and the dialysis membrane (molecular weight cut off 12-14 KDa, Cat #1101) can be purchased from HT Dialysis LLC (Gales Ferry, CT).
The plasma was thawed under running cold tap water and centrifuged at 3220×g for 5 min to remove any clots. The pH value was checked and recorded. Only plasma within range of pH 7.0 to pH 8.0 was used. The dialysis membrane was pretreated according to the manufacturer's instructions. Briefly, the dialysis membrane strips were soaked in ultra-pure water at room temperature for approximately 1 hr. After that, each membrane strip that contained 2 membranes was separated and soaked in ethanol:water (20:80 v:v) for approximately 20 min. The membrane was rinsed and soaked for 20 min in ultra-pure water.
Aliquots of 50 μL loading plasma (matrix) containing compound 1 or warfarin in triplicate were transferred to the appropriate wells of a sample collection plate. The samples were matched with dialysis buffer to obtain a final volume of 100 μL with a volume ratio of plasma (matrix):dialysis buffer (1:1, v:v) in each well. […]
The % Unbound, % Bound, % Recovery and % Remaining were calculated using the following equations: % Unbound=100×F/T % Bound=100−% Unbound % Recovery=100×(F+T)/T0 • F=the compound 1 concentration on the receiver side of the membrane/Correction Factor. […]

[3] = Stability in plasma (mouse); settings: after 120 minutes, 37° C.
Procedure: The pH of plasma was adjusted to 7.4±0.1 if required. 1 mM intermediate solution was prepared by diluting 10 μL of the 10 mM stock solution of 1 with 90 μL DMSO; 1 mM intermediate of positive control propantheline bromide was prepared by diluting 10 μL of the stock solution with 90 μL ultra-pure water. 100 μM dosing solution was prepared by diluting 10 μL of the 1 mM intermediate solution with 90 μL of 45% MeOH/H2O. 98 μL of blank plasma was spiked with 2 μL of the 100 μM dosing solution to achieve a final concentration of 2 μM of the compound in duplicate. Samples were incubated at 37° C. in a water bath. At each time point (0, 10, 30, 60 and 120 min), 400 μL of stop solution (200 ng/mL tolbutamide plus 200 ng/mL labetalol in 50% ACN/MeOH) was added and was mixed thoroughly to precipitate protein. Sample plates were centrifuged at 4,000 rpm for 10 min. An aliquot of supernatant (100 μL) was transferred from each well and was mixed with 200 μL ultra-pure water. The samples were shaken at 800 rpm for about 10 min before LC/MS/MS analysis.
The remaining percentage of compound 1 (test article) after incubation was calculated according to the following equation.

| inhibition at 10 min, 10 µM [1] | fraction unbound at 4 h [2] | remaining percentage after incubation [3] | SMILES |
| --- | --- | --- | --- |
| 10.9% |  |  | C[C@H](CC/C=C/C(=O)OC(C)(C)C)O[C@@H]1O[C@@H](C)[C@H](O)C[C@H]1O [Compound 1, tert-butyl (2E,6R)-6-{[(2R,3R,5R,6S)-3,5-dihydroxy-6-methyloxan-2-yl]oxy}hept-2-enoate] |
| 2.3% | 0.946 | 103.4% | C[C@H](CC/C=C/C(=O)O)O[C@@H]1O[C@@H](C)[C@H](O)C[C@H]1O [ascr #7, reference compound] |
